Measurements published in patent publication US4042683A, “Rifamycins P, Q and U” (Gruppo Lepetit S.p.A., priority 1974, dated 1977).
In brackets after ≈: the same amount, converted by molar mass. Where two headings read alike, the source gives them in different places.

Assays:
Bacillus Subtilis = assay: agar disc inhibition of growth of Bacillus subtilis; assay type: cell-based; settings: Penassay agar pH 7.2, disc of agar carrying a single colony
Protocol: A suspension of spores of Streptomyces mediterranei ATCC 13685 was treated with N-methyl-N'-nitro-N-nitrosoguanidine at 1 mg/ml in a pH 9.0 tris(hydroxymethyl)aminomethane buffer for 60 minutes at 28° C. The mutagen-treated spores were then washed and plated onto Petri dishes containing Bennett agar. After 14 days incubation at 28° C., the surviving colonies were picked off and examined for their ability to inhibit the growth of Bacillus Subtilis in the following manner: a disc of agar (diameter 4-8 mm) carrying a single colony was transferred onto a Petri disch containing […] agar at pH 7.2 previously seeded at 2% (v/v) with Bacillus Subtilis. […] Three strains were isolated in this way and were originally given our internal code D-2, MM18-6 and M-36. Samples of these microorganisms were deposited with the ATCC where they are identified respectively as Nocardia mediterranea ATCC 31064 Nocardia mediterranea ATCC 31065 and Nocardia mediterranea ATCC 31066.

Staphylococcus aureus = assay: experiments on mice injected with Staphylococcus aureus; assay type: in vivo
Description: The novel compounds are active also in the laboratory animals injected with Staphylococcus aureus, Escherichia coli. The following table reports the results of representative experiments on mice in comparison with a known natural rifamycin, i.e. rifamycin SV.

[1] = tested on: Staphylococcus aureus Tour rifampicin-resistant; assay: in vitro activity spectrum, minimal inhibition concentration, Staphylococcus aureus Tour rifampicin-resistant
[2] = tested on: Streptococcus hemolyticus C 203; assay: in vitro activity spectrum, minimal inhibition concentration, Streptococcus hemolyticus C 203; assay type: cell-based
Description: (§1) | Minimal inhibiton concentration (μg/ml)

[3] = tested on: Streptococcus faecalis ATCC 10541; assay: in vitro activity spectrum, minimal inhibition concentration, Streptococcus faecalis ATCC 10541; assay type: cell-based
Description: as §1

[4] = tested on: Staphylococcus aureus ATCC 6538; assay: in vitro activity spectrum, minimal inhibition concentration, Staphylococcus aureus ATCC 6538; assay type: cell-based; settings: for MIC: Staphylococcus aureus, read-out: Minimal inhibiton concentration
Description: as §1

[5] = tested on: Mycobacterium tub. H37Rv ATCC 9360; assay: in vitro activity spectrum, minimal inhibition concentration, Mycobacterium tub. H37Rv ATCC 9360; assay type: cell-based
Description: as §1

[6] = tested on: Pseudomonas aeruginosa ATCC 10145; assay: in vitro activity spectrum, minimal inhibition concentration, Pseudomonas aeruginosa ATCC 10145; assay type: cell-based
Description: as §1

[7] = tested on: Proteus vulgaris X 19 H ATCC 881; assay: in vitro activity spectrum, minimal inhibition concentration, Proteus vulgaris X 19 H ATCC 881; assay type: cell-based
Description: as §1

[8] = tested on: Diplococcus pneumoniae UC 41; assay: in vitro activity spectrum, minimal inhibition concentration, Diplococcus pneumoniae UC 41; assay type: cell-based
Description: as §1

[9] = tested on: Escherichia coli ATCC 10536; assay: in vitro activity spectrum, minimal inhibition concentration, Escherichia coli ATCC 10536; assay type: cell-based
Description: as §1

[10] = tested on: Staphylococcus aureus Tour; assay: in vitro activity spectrum, minimal inhibition concentration, Staphylococcus aureus Tour; assay type: cell-based
Description: as §1

[11] = tested on: Klebsiella pneumoniae ATCC 10031; assay: in vitro activity spectrum, minimal inhibition concentration, Klebsiella pneumoniae ATCC 10031; assay type: cell-based
Description: as §1

## COC1C=COC2(C)Oc3c(C)c(O)c4c(O)c(cc(OCC(=O)O)c4c3C2=O)NC(=O)C(C)=CC=CC(C)C(O)C(C)C(O)C(C)C(OC(C)=O)C1C (stereo not drawn) [rifamycin B]
Bacillus Subtilis
  inhibition of the growth of Bacillus subtilis: practically inactive

## CO[C@H]1/C=C/O[C@@]2(C)Oc3c(C)c(O)c4c(O)c(cc(O)c4c3C2=O)NC(=O)/C(C)=C\C=C\[C@H](C)[C@H](O)[C@@H](C)[C@@H](O)[C@@H](C)[C@H](OC(C)=O)[C@@H]1C [rifamycin SV]
Staphylococcus aureus; po, o.s., read-out: ED50
  ED50: 74 mg/kg
Staphylococcus aureus; sc, read-out: ED50
  ED50: 17 mg/kg

## COC1/C=C\OC2(C)Oc3c(C)c(O)c4c(O)c(c5sc(CO)nc5c4c3C2=O)NC(=O)/C(C)=C/C=C/C(C)C(O)C(C)C(O)C(C)C(OC(C)=O)C1C (stereo not drawn) [Rifamycin Q]
[1]; Staphylococcus aureus Tour rifampicin-resistant
  Minimal inhibiton concentration: > 100 µg/mL
[2]
  Minimal inhibiton concentration: 0.019 µg/mL (≈ 0.0247 µM)
[3]
  Minimal inhibiton concentration: 0.312 µg/mL (≈ 0.406 µM)
[4]; Staphylococcus aureus ATCC 6538
  Minimal inhibiton concentration: 0.039 µg/mL (≈ 0.0507 µM)
[4]; Staphylococcus aureus ATCC 6538 (20% bovine serum)
  Minimal inhibiton concentration: 0.078 µg/mL (≈ 0.101 µM)
[5]
  Minimal inhibiton concentration: 2.5 µg/mL (≈ 3.25 µM)
[6]
  Minimal inhibiton concentration: 50 µg/mL (≈ 65 µM)
[7]
  Minimal inhibiton concentration: 12.5 µg/mL (≈ 16.3 µM)
[8]
  Minimal inhibiton concentration: 0.039 µg/mL (≈ 0.0507 µM)
[9]
  Minimal inhibiton concentration: 12.5 µg/mL (≈ 16.3 µM)
[10]
  Minimal inhibiton concentration: 0.06 µg/mL (≈ 0.078 µM)
[11]
  Minimal inhibiton concentration: 50 µg/mL (≈ 65 µM)
Staphylococcus aureus; s.c.
  ED50: 8 mg/kg

## COC1C=COC2(C)Oc3c(C)c(O)c4c(c3C2=O)C(=O)C=C(NC(=O)C(CO)=CC=CC(C)C(O)C(C)C(O)C(C)C(OC(C)=O)C1C)C4=O (stereo not drawn) [Rifamycin R]
[1]; Staphylococcus aureus, read-out: Minimal inhibiton concentration
  MIC: 100 µg/mL (≈ 140 µM)
[2]; Streptococcus pyogenes, C203, read-out: Minimal inhibiton concentration
  MIC: 0.00312 µg/mL (≈ 0.00438 µM)
[3]; Enterococcus faecalis, ATCC10541, read-out: Minimal inhibiton concentration
  MIC: 0.19 µg/mL (≈ 0.267 µM)
[4]; ATCC6538, Staphylococcus aureus ATCC 6538 (20% bovine serum)
  MIC: 0.0047 µg/mL (≈ 0.0066 µM)
[4]; ATCC6538, Staphylococcus aureus ATCC 6538
  MIC: 0.019 µg/mL (≈ 0.0267 µM)
[5]; Mycobacterium tuberculosis, read-out: Minimal inhibiton concentration
  MIC: 0.1 µg/mL (≈ 0.14 µM)
[6]; ATCC10145, read-out: Minimal inhibiton concentration
  MIC: 100 µg/mL (≈ 140 µM)
[7]; ATCC881, read-out: Minimal inhibiton concentration
  MIC: 12.5 µg/mL (≈ 17.6 µM)
[8]; Streptococcus pneumoniae, UC41, read-out: Minimal inhibiton concentration
  MIC: 0.00625 µg/mL (≈ 0.00878 µM)
[9]; ATCC10536, read-out: Minimal inhibiton concentration
  MIC: 50 µg/mL (≈ 70.2 µM)
[10]; read-out: Minimal inhibiton concentration
  MIC: 0.00235 µg/mL (≈ 0.0033 µM)
